The source of these data is patent US6143722A, “Heptapeptide oxytocin analogues” (Ferring, B.V., priority 1996, dated 2000).

Where two headings read alike, the source gives them in different places. *1 amine or outer side, *2 acyl side, *3 side chain or, on linkers, in order; H or OH if unused. Where a SMILES comes first, the peptide text is derived from it. Bridges are numbered along the chain shown (N, C = ends). [ ]: non-standard residue; d: D form. ξ: configuration not given here. d2Nal = N[C@H](Cc1ccc2ccccc2c1)C(=O)O; aIle = CC[C@@H](C)[C@H](N)C(=O)O; hCys = N[C@@H](CCS)C(=O)O; ξNMeOrn = CNC(CCCN)C(=O)O; X1 = O=C(CC[*:2])[*:1]

Series [1] is described as follows: Evaluation of stability in aqueous solution (HPLC). The conditions noted are these: Isotonic citrate/phosphate buffer, pH 4.5; stored at 50° C.; loss of peptide by HPLC.
Protocol: (§1) Solutions of the heptapeptide analogues of the present invention were prepared with compositions representative of aqueous formulations. The solutions were stored for several weeks at 50° C. and aliquots were withdrawn periodically for analysis by HPLC. Reference peptides were studied in parallel. Degradation was determined as the loss of peptide (% by weight per week), independent of the nature of the decomposition products.
The target in series [2] is T1, Recombinant human oxytocin receptors (Homo sapiens, UniProt P30559).
T1 construct: expressed in transfected cells; host or cells: CHO or HEK293 cells (membrane fraction)
T1 sequence (P30559 1-389): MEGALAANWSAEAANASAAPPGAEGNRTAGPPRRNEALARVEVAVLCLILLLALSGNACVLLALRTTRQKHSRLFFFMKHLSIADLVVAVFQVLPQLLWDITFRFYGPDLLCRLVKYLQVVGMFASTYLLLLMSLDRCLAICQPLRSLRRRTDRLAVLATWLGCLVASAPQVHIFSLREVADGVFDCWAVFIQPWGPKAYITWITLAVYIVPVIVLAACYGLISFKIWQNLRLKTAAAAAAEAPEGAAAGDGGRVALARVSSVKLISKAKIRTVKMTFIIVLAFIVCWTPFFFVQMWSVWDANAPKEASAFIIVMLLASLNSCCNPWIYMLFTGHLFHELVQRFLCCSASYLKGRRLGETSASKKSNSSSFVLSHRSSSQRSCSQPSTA
Briefly: Oxytocin receptor binding assay ([125I]-oxytocin, membrane fraction). The conditions noted are these: recombinant human oxytocin receptors expressed in CHO or HEK293 cells, mean ± SEM. Here is the method: i) Oxytocin receptor binding assay
Recombinant human oxytocin receptors were expressed in either CHO or HEK293 cells using standard molecular biological techniques. A membrane fraction was prepared and incubated in the presence of [^125 I]-oxytocin and varying concentrations of heptapeptide analogue. Membranes were then isolated by filtration and counted for radioactivity to determine oxytocin binding. An inhibition constant Ki was determined for the analogue.

For series [3] the following is noted: pH 4.5.
Protocol: as §1
Series [4] concerns myometrium. It is filed as in vivo, Sprague Dawley rats. As to conditions: for ID50, rat model: in vivo. The protocol: Sprague Dawley rats (ca. 250 g) in natural estrus were anaesthetised with Inactin (0.5 mg/100 g body weight, i.p.). The activity of the myometrium was measured with the aid of a catheter fixed in the uterine cavity and filled with modified Lockes solution. The catheter was connected to a Statham P23D force transducer and the contractions were recorded on a Grass polygraph (model 7D).
The dose-response curve for oxytocin (2×10^-4 -5×10^-3 μmol/kg) was recorded. In this case the response was quantified by integration of the curve during the 15 minutes following agonist injection. A dose of oxytocin giving an effect corresponding to an intralumenar contraction pressure of 10-30 mm Hg and within the linear section of the curve was selected. This dose of oxytocin was administered to the animal in conjunction with at least two different doses of antagonist and the effect was recorded. The dose of antagonist which reduces the effect of the agonist to 50% of tis control value was determined by interpolation and is given here as an ID50 value. [ID50 value=dose of antagonist required to reduce the effect of a given agonist dose by 50%].
The duration of action of the antagonists was also determined in this model. An oxytocin dose was selected (2×10^-4 -5×10^-3μmol/kg) giving an effect corresponding to half the maximum effect (this dose is the ED50). The effect determined here is the same as for the ID50 determination defined above. An antagonist dose was selected (8×10^-4 -4×10^-3 μmol/kg) so as to give at least 50% inhibition of the response to the agonist. At the beginning of the experiment, single doses of the agonist and antagonist were co-administered. At 20 minute intervals thereafter, doses of the agonist alone were administered and the response was measured. […] [t75 value=time period required for the effectiveness of a single dose to decline by 75%].

The test system of series [5] is Uterus muscle tissue from women in late pregnancy. As to the kind of experiment: Antagonist effect in vitro in a human uterus model (oxytocin-induced contraction of uterus muscle strips). The conditions noted are these: concentration of antagonist reducing the oxytocin response to 50% of control; isolated human uterus strips. It is filed as cell-based. Here is the method: ii) Antagonist effect in vitro in a human uterus model
Uterus muscle tissue from women in late pregnancy undergoing Caesarean section was cut into strips which were mounted in a tissue bath filled with Krebs-Ringer buffer and oxygenated with carbogen (95% O2 +5% CO2) gas. Changes in isometric muscle tension detected with a tension transducer were recorded on a Grass polygraph.
The concentration-effect curve of oxytocin was recorded. The effect measured in this case corresponds to the net value of the integrated contraction curve during the 10 minute period following agonist (i.e. oxytocin) administration. A concentration of oxytocin giving at least half-maximal response was selected. This concentration of agonist was administered to the tissue in the presence of different concentrations of antagonist heptapeptide analogue and the response was recorded. The concentration of antagonist required to reduce the response to 50% of its control value was determined by regression analysis and is given here as an IC50 value. [IC50 value=concentration of antagonist required to reduce the effect of a given agonist dose by 50%].

Usually Ki stands for a measure of affinity in units of concentration, obtained from inhibition or displacement. For orientation: IC50 means the concentration needed to halve the response being measured. Read a low IC50 as inhibition by little substance.

Take `CC[C@@H](C)[C@@H]1NC(=O)[C@H]([C@@H](C)CC)NC(=O)[C@@H](Cc2ccc3ccccc3c2)NC(=O)CCSCC[C@@H](C(=O)N(C)C(CCCN)C(N)=O)NC(=O)[C@H](CC(N)=O)NC1=O` (some centres unmarked) [r-XI] ([d2Nal]I[aIle]N[hCys][ξNMeOrn]-NH2; linker N-5 via X1): in series [1], the “Degradation at 50° C. (wt %/week)” value worked out at 4.0 wt %/week.

`CC[C@H](C)[C@@H]1NC(=O)[C@@H](Cc2c[nH]c3ccccc23)NC(=O)CCSCC[C@@H](C(=O)N(C)[C@H](CO)CCCN)NC(=O)[C@H](CC(N)=O)NC(=O)[C@H](CC2CCCCC2)NC1=O` [IV]: the Ki in series [2] amounted to 7 ± 1.85 nM.

`CC[C@@H](C)[C@@H]1NC(=O)[C@H]([C@@H](C)CC)NC(=O)[C@@H](Cc2ccc3ccccc3c2)NC(=O)CCSCC[C@@H](C(=O)N(C)[C@H](CO)CCCN)NC(=O)[C@H](CC(N)=O)NC1=O` [VI]: the “Degradation at 50° C. (wt %/week)” value in series [3] was determined as 1.2 wt %/week. In addition, the Ki in series [2] was 0.1 nM.

In the case of `CC[C@H](C)[C@@H]1NC(=O)[C@H]([C@@H](C)CC)NC(=O)[C@@H](Cc2c[nH]c3ccccc23)NC(=O)CCSCC[C@@H](C(=O)N(C)[C@H](CO)CCCN)NC(=O)[C@H](CC(N)=O)NC1=O` [V], the inhibitory constant (Ki) in series [2] was 1.4 ± 0.15 nM.

In the case of `CC[C@@H](C)[C@@H]1NC(=O)[C@H]([C@@H](C)CC)NC(=O)[C@@H](Cc2c[nH]c3ccccc23)NC(=O)CCSCC[C@@H](C(=O)N(C)C(CCCN)C(N)=O)NC(=O)[C@H](CC(N)=O)NC1=O` (some centres unmarked) [r-IX, reference compound] ([dW]I[aIle]N[hCys][ξNMeOrn]-NH2; linker N-5 via X1), the “Degradation at 50° C. (wt %/week)” value in series [1] stood at 2.9 wt %/week. For the same compound, the “ID50, rat model” value in series [4] is 2.9 ± 0.3 nmol/kg.

Turning to `CC[C@@H](C)[C@@H]1NC(=O)[C@H]([C@@H](C)CC)NC(=O)[C@@H](Cc2c[nH]c3ccccc23)NC(=O)CCSCC[C@@H](C(=O)N(C)[C@H](CO)CCCN)NC(=O)[C@H](CC(N)=O)NC1=O` [Peptide I], in series [5], the IC50 amounted to 5 ± 1 nM. Besides, the “Degradation at 50° C. (wt %/week)” value in series [3] was determined as 0.4 wt %/week. In addition, the inhibitory constant (Ki) in series [2] stood at 0.25 ± 0.16 nM. Moreover, the “t75, rat model” value in series [4] (duration of action: time for the effectiveness of a single dose to decline by 75%, antagonist dose 8×10^-4 -4×10^-3 μmol/kg) was 169 ± 2 min. The “ID50, rat model” value in series [4] is on record as 2.9 ± 0.3 nmol/kg.

Turning to `CC[C@H](C)[C@@H]1NC(=O)[C@@H](Cc2c[nH]c3ccccc23)NC(=O)CCSCC[C@@H](C(=O)N(C)[C@H](CO)CCCN)NC(=O)[C@H](CC(N)=O)NC(=O)[C@H](CC(C)C)NC1=O` [II], in series [2], the Ki turned out to be 3.2 ± 0.75 nM.

For the compound `CC[C@H](C)[C@@H]1NC(=O)[C@@H](Cc2c[nH]c3ccccc23)NC(=O)CCSCC[C@@H](C(=O)N(C)[C@H](CO)CCCN)NC(=O)[C@H](CC(N)=O)NC(=O)[C@H](C(C)C)NC1=O` [III], the “Degradation at 50° C. (wt %/week)” value in series [3] is listed as 0.7 wt %/week. In series [2], the Ki worked out at 0.8 ± 0.3 nM.

On to `CCC(CC)[C@@H]1NC(=O)[C@H]([C@@H](C)CC)NC(=O)[C@@H](Cc2c[nH]c3ccccc23)NC(=O)CCSCC[C@@H](C(=O)N(C)[C@H](CO)CCCN)NC(=O)[C@H](CC(N)=O)NC1=O` [VII], for which the inhibition constant Ki in series [2] is 2.4 ± 0.85 nM.

As to `CC[C@H](C)[C@@H]1NC(=O)[C@@H](Cc2c[nH]c3ccccc23)NC(=O)CCSCC[C@@H](C(=O)N(C)C(CCCN)C(N)=O)NC(=O)[C@H](CC(N)=O)NC(=O)[C@H](C(C)C)NC1=O` (some centres unmarked) [r-X] ([dW]IVN[hCys][ξNMeOrn]-NH2; linker N-5 via X1), the “Degradation at 50° C. (wt %/week)” value in series [1] is on record as 4.3 wt %/week.
